± gives the expanded uncertainty stated by the source.
Key:
[1] = 101.33 kPa, Liquid, Vibrating tube method
[2] = activity coefficient (dimensionless); of the first substance listed, at infinite dilution; xn = mol fraction of the nth substance listed; conditions: 101 kPa, Liquid, Chromatography, x1 = 0

SMILES | mass density ([1]; 293.15 K) | mass density ([1]; 303.15 K) | mass density ([1]; 313.15 K) | mass density ([1]; 323.15 K) | mass density ([1]; 333.15 K) | activity coefficient ([2]; 323.15 K) | activity coefficient ([2]; 333.15 K) | activity coefficient ([2]; 343.15 K)
CCCC[N+]1(C)CCCC1.O=S(=O)([N-]S(=O)(=O)C(F)(F)F)C(F)(F)F | 1397.4 ± 0.6 kg/m3 | 1389.2 ± 0.6 kg/m3 | 1381.1 ± 0.6 kg/m3 | 1372.7 ± 0.6 kg/m3 | 1364.1 ± 0.6 kg/m3 | – | – | –
CCC[N+]1(C)CCCC1.O=S(=O)([N-]S(=O)(=O)C(F)(F)F)C(F)(F)F | 1430.1 ± 0.6 kg/m3 | 1421.8 ± 0.6 kg/m3 | 1412.8 ± 0.6 kg/m3 | 1403.8 ± 0.6 kg/m3 | 1394.4 ± 0.6 kg/m3 | – | – | –
CCCCCCCCCCC [undecane] + CCCC[N+]1(C)CCCC1.O=S(=O)([N-]S(=O)(=O)C(F)(F)F)C(F)(F)F | – | – | – | – | – | 76.9 ± 5.3 | 68.2 ± 4.7 | 61.1 ± 4.2
CCCCCCCCCCC [undecane] + CCC[N+]1(C)CCCC1.O=S(=O)([N-]S(=O)(=O)C(F)(F)F)C(F)(F)F | – | – | – | – | – | 108 ± 7.4 | 92.8 ± 6.4 | 85.1 ± 5.8
